Values quoted from earlier work as cited in article PMC4871733 (Nature chemical biology, 2016).

Experiments:
[1] = after 30 minute exposure
[2] = not given; remark: listed apart in the source
[3] = after 30 minute exposure; remark: listed apart in the source
[4] = after 30 minute exposure; remark: listed apart in the source

Efflux ratio: 1.35
Stability in rat liver microsomes [1]: > 90%
Aqueous kinetic solubility [2]: 79 µM
Stability in mouse liver microsomes [3]: > 90%
Stability in human liver microsomes [4]: > 90%
SMILES: Cn1c2cc([S+](C)[O-])sc2c2cnn(Cc3cccc(N)c3)c(=O)c21 (centres unmarked) [ML265]
